Here are results for four molecules from patent US8314255B2, “Use of phthalimide and/or sulphonamide derivatives in the treatment of diseases which require reducing the TNF- α levels and an exogenous source of nitric oxide, phthalimide derivatives, sulphonamide derivatives, and a method for obtaining a sulphonamide derivative” (priority 2007, dated 2012).

Series [1] has as its system Salmonella typhimurium TA100. As to the kind of experiment: AMES test, mutagenic evaluation in Salmonella typhimurium TA100 strain with/without metabolic activation (S9). The series is classed as cell-based. The method, then:
The procedure was firstly developed by (MARON, D. M. and AMES, B. N. Mut. Res. v. 113, pp. 173-215, 1983)
For this assay, Salmonella typhimurium TA100 and TA102 strains from the mutagenicity laboratory of the “Faculdade de Ciências Farmacêuticas—UNESP Araraquara” were used. Such strains have the following characteristics: (AMES, 1983)
The positive controls are mutagenic compounds specific for each strain and test condition, with 25 μL/plate of sodium azide (1.25 μg/plate) and 100 μL of mitomycin (0.5 μg/plate) being the controls for TA100 and TA102, respectively, in the absence of metabolic activation. For assays with metabolic activation, the positive control for TA100 is 50 μL 2-antramine (1.25 μg/plate) and for TA102 it is 50 μL 2-aminofluorene (1.25 μg/plate).
The preincubation method was used.
In laminar flow, Salmonella typhimurium (TA100 and TA 102) strains were inoculated individually with a platinum loop, in the respective nutrient broths and maintained at 37° C., under constant stirring (160 rpm) during 14 hours, in order to achieve a density of 1 to 2×10^9 bacteria/mL.
Different concentrations of the compounds were added into 100 μL of 0.2M phosphate buffer pH 7.4 (or 500 μL of the mixture S9 in metabolic activation assays) and incubated for 20-30 minutes at 37° C. Solutions containing the compounds had DMSO as the solvent. Thereafter, 2 mL of top agar supplemented with traces of histidine and biotin was added, homogenized and plated in glycosylated minimum medium. After solidification of the top agar, the plates were incubated for 48 hours at a 37° C. Then, the counting of the number of revertant colonies per plate was performed. All tested concentrations, positive and negative controls were run in triplicate.
After 48 hours, the revertant colonies were counted manually, and the protoCOL Colony Counter Version 3.15.630 (1998-2001) SYNBIOSIS LTD system was used for the positive control.
The final data obtained from the assay was analyzed using the statistical software Salanal (Salmonella Assay Analysis) version 1.0 from the Research Triangle Institute, RTP, North Carolina, USA. Such software allows the dose-response effect to be evaluated by means of analysis of variance (ANOVA-test F) computations between the measurement of the number of revertants at the different tested concentrations (doses) and the negative control, followed by a linear regression. The software model chosen for analyzing the data was Bernstein's (BERNSTEIN, L. et al. Mutat. Res. v. 97, p. 267-281, 1982). The slope of the straight line from the linear portion of the dose-response curve is also provided by this software and corresponds to the number of revertants induced per measurement unit of the analyzed sample.
From the results, the mutagenicity ratio (MR) was computed for each analyzed dose from each compound. MR is given by the following equation:
MR=average number of revertants per test plate (spontaneous+induced revertants) […] average number of revertants per plate of the negative control (spontaneous revertants)
The spontaneous growing means that the number of revertants which developed on the plate, regardless of being induced or not, wherein values higher or equal to 2 are considered as a positive response (VALENT, G. V. et al. Env. Toxicol. Water Quality. v. 8, p. 371-381, 1993).
The mutagenicity test with metabolic activation system was performed with a microsomal fraction S9 (S9 mix) prepared from a liver homogenizate from Sprague Dawley rats, previously treated with Aroclor 1254, acquired in the freeze-dried form.
The procedure for this assay is the same, however, instead of the buffer, 500 μL of the S9 mixture should be added.
The S9 mixture has a viability of 4 hours from preparation when put on ice. The plates are then incubated for 48 hours at 37° C. After the required time has elapsed, the counting of the revertant colonies was carried out. All tested concentrations, positive and negative controls were run in triplicate.

In series [2] the test system is abdominal writhing induced by acetic acid. As to the kind of experiment: Abdominal writhing assay induced by acetic acid. It counts as in vivo. The conditions noted are these: oral, mice, acetic acid 0.1N i.p. after 1 hour, writhings counted during 20 minutes. The method, then: In order to evaluate the peripheral analgesic activity of the compounds, an abdominal writhing assay induced by acetic acid (Table 6) was carried out. In this assay, we could infer that compound ID has an important analgesic activity, inhibiting abdominal writhing by 66%. […] The analgesic activity may be related to the ability of these compounds to inhibit the cytokine TNFα, since it is known that this would be one of the mechanisms that explain the analgesia of molecules such as thalidomide.
The antinociceptive profile was evaluated through the abdominal writhing assay induced by acetic acid in mice. In this assay, Swiss mice from both genders were used, weighing from 21 to 28 grams, fasted for a time period of about 8 hours. The test substance was administered orally and had, as a carrier, 5% gum arabic. After 1 hour, the administration of acetic acid 0.1N (0.1 mL/10 g weight) was performed in the peritoneal cavity of the animals. Ten minutes after the injection of acetic acid, writhings were counted during 20 minutes.
(In general: Writhing tests count abdominal constrictions after an irritant is injected.)

On to `O=C1c2ccccc2C(=O)N1CO[N+](=O)[O-]` [Compound IA, (1,3-dioxo-1,3-dihydro-2H-isoindol-2-yl)methyl nitrate], for which the “mutagenicity ratio (MR)” value in series [1] (TA 100, +S9, 7.25 nmol/plate) is reported as 1.19; in series [1] (TA 100, +S9, 14.5 nmol/plate), 1.19; in series [1] (TA 100, +S9, 29 nmol/plate), 1.08; in series [1] (TA 100, +S9, 56 nmol/plate) it was 0.97; in series [1] (TA 100, +S9, 112 nmol/plate) it was 1.03; in series [1] (TA 100, −S9, 7.25 nmol/plate) it was 1.03. The “mutagenicity ratio (MR)” value was 1.18 in series [1] (TA 100, −S9, 14.5 nmol/plate); 0.9 in series [1] (TA 100, −S9, 29 nmol/plate); 1.71 in series [1] (TA 100, −S9, 56 nmol/plate); 2.45 in series [1] (TA 100, −S9, 112 nmol/plate). Besides, the “number of revertants per plate” value in series [1] (TA 100, +S9, 7.25 nmol/plate) amounted to 154 ± 14.2 revertants/plate; in series [1] (TA 100, +S9, 14.5 nmol/plate) it was 155 ± 5.9 revertants/plate; in series [1] (TA 100, +S9, 29 nmol/plate) it was 140.3 ± 2 revertants/plate; in series [1] (TA 100, +S9, 56 nmol/plate) it was 126.3 ± 8.1 revertants/plate; in series [1] (TA 100, +S9, 112 nmol/plate), 133.3 ± 11 revertants/plate; in series [1] (TA 100, −S9, 7.25 nmol/plate) it was 140.5 ± 17 revertants/plate. Also, the “number of revertants per plate” value is recorded as 161.7 ± 11 revertants/plate in series [1] (TA 100, −S9, 14.5 nmol/plate); 122.7 ± 3.06 revertants/plate in series [1] (TA 100, −S9, 29 nmol/plate); 234 ± 39.5 revertants/plate in series [1] (TA 100, −S9, 56 nmol/plate); 335 ± 15.7 revertants/plate in series [1] (TA 100, −S9, 112 nmol/plate). In series [2], the “Average (abdominal writhings)” value came to 28.6.
As for `O=C1c2ccccc2C(=O)N1c1ccc(CCO[N+](=O)[O-])cc1` [Compound IE, 2-[4-(1,3-dioxo-1,3-dihydro-2H-isoindol-2-yl)phenyl]ethyl nitrate], the “mutagenicity ratio (MR)” value in series [1] (TA 100, +S9, 0.12 μmol/plate) was determined as 2.8; in series [1] (TA 100, +S9, 0.25 μmol/plate) it was 3.7; in series [1] (TA 100, +S9, 0.5 μmol/plate), 4.86; in series [1] (TA 100, +S9, 1 μmol/plate), 5.72; in series [1] (TA 100, +S9, 2 μmol/plate), 5.79; in series [1] (TA 100, −S9, 0.12 μmol/plate) it was 1.04. Also, the “mutagenicity ratio (MR)” value came out at 0.99 in series [1] (TA 100, −S9, 0.25 μmol/plate); 0.99 in series [1] (TA 100, −S9, 0.5 μmol/plate); 0.89 in series [1] (TA 100, −S9, 1 μmol/plate); 1.30 in series [1] (TA 100, −S9, 2 μmol/plate). For the same molecule, the “number of revertants per plate” value worked out at 363 ± 25.2 revertants/plate in series [1] (TA 100, +S9, 0.12 μmol/plate); 478.7 ± 4.22 revertants/plate in series [1] (TA 100, +S9, 0.25 μmol/plate); 628 ± 40.8 revertants/plate in series [1] (TA 100, +S9, 0.5 μmol/plate); 739 ± 25.4 revertants/plate in series [1] (TA 100, +S9, 1 μmol/plate); 750 ± 13.6 revertants/plate in series [1] (TA 100, +S9, 2 μmol/plate); 143.3 ± 5 revertants/plate in series [1] (TA 100, −S9, 0.12 μmol/plate). In addition, the “number of revertants per plate” value in series [1] (TA 100, −S9, 0.25 μmol/plate) turned out to be 135.3 ± 12 revertants/plate; in series [1] (TA 100, −S9, 0.5 μmol/plate), 136.3 ± 13 revertants/plate; in series [1] (TA 100, −S9, 1 μmol/plate), 121.5 ± 14 revertants/plate; in series [1] (TA 100, −S9, 2 μmol/plate) it was 177 ± 23.6 revertants/plate.
In the case of `Nc1ccc(S(=O)(=O)NO)cc1` [Compound IIA, 4-amino-N-hydroxybenzenesulphonamide], the “mutagenicity ratio (MR)” value in series [1] (TA 100, +S9, 0.98 μmol/plate) worked out at 1.24; in series [1] (TA 100, +S9, 1.96 μmol/plate) it was 1.36; in series [1] (TA 100, +S9, 3.92 μmol/plate) it was 1.43; in series [1] (TA 100, +S9, 7.85 μmol/plate), 1.59; in series [1] (TA 100, +S9, 15.7 μmol/plate) it was 2.74; in series [1] (TA 100, −S9, 0.98 μmol/plate), 0.99. In addition, the “mutagenicity ratio (MR)” value in series [1] (TA 100, −S9, 1.96 μmol/plate) is listed as 1.23; in series [1] (TA 100, −S9, 3.92 μmol/plate), 1.22; in series [1] (TA 100, −S9, 7.85 μmol/plate), 1.17; in series [1] (TA 100, −S9, 15.7 μmol/plate), 1.19. The “number of revertants per plate” value is 160 ± 12.4 revertants/plate in series [1] (TA 100, +S9, 0.98 μmol/plate); 175.7 ± 2 revertants/plate in series [1] (TA 100, +S9, 1.96 μmol/plate); 185.3 ± 15 revertants/plate in series [1] (TA 100, +S9, 3.92 μmol/plate); 206 ± 13.6 revertants/plate in series [1] (TA 100, +S9, 7.85 μmol/plate); 354 ± 6.5 revertants/plate in series [1] (TA 100, +S9, 15.7 μmol/plate); 146.3 ± 5.1 revertants/plate in series [1] (TA 100, −S9, 0.98 μmol/plate). For the same molecule, the “number of revertants per plate” value in series [1] (TA 100, −S9, 1.96 μmol/plate) turned out to be 180.5 ± 7.8 revertants/plate; in series [1] (TA 100, −S9, 3.92 μmol/plate), 179 ± 11.3 revertants/plate; in series [1] (TA 100, −S9, 7.85 μmol/plate), 172.7 ± 12.5 revertants/plate; in series [1] (TA 100, −S9, 15.7 μmol/plate), 175 ± 2.8 revertants/plate. In addition, the “concentration above which the number of revertants is reduced by cell toxicity” value in series [1] (with metabolic activation) is recorded as “Above 15.7 μmol/plate”. In addition, the “Average (abdominal writhings)” value in series [2] worked out at 30.4.
On to `O=C1c2ccccc2C(=O)N1CCO[N+](=O)[O-]` [IB, 2-(1,3-dioxo-1,3-dihydro-2H-isoindol-2-yl)ethyl nitrate], for which the “mutagenicity ratio (MR)” value came to 3.4 in series [1] (TA 100, +S9, 0.01 μmol/plate); 3.22 in series [1] (TA 100, +S9, 0.021 μmol/plate); 3.8 in series [1] (TA 100, +S9, 0.042 μmol/plate); 3.8 in series [1] (TA 100, +S9, 0.085 μmol/plate); 2.5 in series [1] (TA 100, +S9, 0.17 μmol/plate); 1.49 in series [1] (TA 100, −S9, 0.01 μmol/plate). For the same molecule, the “mutagenicity ratio (MR)” value in series [1] (TA 100, −S9, 0.021 μmol/plate) was determined as 1.74; in series [1] (TA 100, −S9, 0.042 μmol/plate), 1.94; in series [1] (TA 100, −S9, 0.085 μmol/plate), 1.8; in series [1] (TA 100, −S9, 0.17 μmol/plate) it was 1.43. Moreover, the “number of revertants per plate” value in series [1] (TA 100, +S9, 0.01 μmol/plate) is 354 ± 6.9 revertants/plate; in series [1] (TA 100, +S9, 0.021 μmol/plate), 335 ± 10.8 revertants/plate; in series [1] (TA 100, +S9, 0.042 μmol/plate), 397 ± 25.9 revertants/plate; in series [1] (TA 100, +S9, 0.085 μmol/plate), 395 ± 40.2 revertants/plate; in series [1] (TA 100, +S9, 0.17 μmol/plate) it was 261 ± 11 revertants/plate; in series [1] (TA 100, −S9, 0.01 μmol/plate), 171 ± 48.9 revertants/plate. Besides, the “number of revertants per plate” value in series [1] (TA 100, −S9, 0.021 μmol/plate) is given as 200 ± 23.3 revertants/plate; in series [1] (TA 100, −S9, 0.042 μmol/plate), 223 ± 45.04 revertants/plate; in series [1] (TA 100, −S9, 0.085 μmol/plate), 206 ± 30.2 revertants/plate; in series [1] (TA 100, −S9, 0.17 μmol/plate), 165 ± 11.1 revertants/plate. Also, the “Average (abdominal writhings)” value in series [2] was 39.2. Further, in series [2], the “Inhibition % (abdominal writhing)” value is 23.22%.
